# What was measured:
# [1] = biological target: T1, NMDA-GluN2B receptors, rhesus monkey frontal cortex homogenate (Macaca mulatta, UniProt F6T8S6); assay: Radioligand binding, rhesus frontal cortex homogenate; settings: geometric mean
# T1 construct: frontal cortex homogenate (dog and rhesus monkey); from tissue; host or cells: rhesus monkey frontal cortex homogenate
# Procedure: Radioligand binding assays were performed at room temperature (or 37° C.) in 96-well microtiter plates with a final assay volume of […] in 20 mM HEPES buffer (pH 7.4) containing 150 mM NaCl. […] Nonspecific binding was assessed using N-(3-chlorobenzyl)-4-iodobenzimidamide (final concentration, 10 μM), and total binding was measured by addition of DMSO (final concentration, 2%). L(tk−) cell membranes expressing human GluN1a/GluN2B receptors (final concentration, 40 pM) and [^3H]-[(E)-N1-(2-methoxybenzyl)-cinnamamidine] (final concentration, 1 nM) were added to all wells of the microtiter plate. After 3 h (24 h or 48 h) of incubation at room temperature (or 37° C.), samples were filtered through Packard GF/B filters (presoaked in 0.05% polyethylenimine [PEI; Sigma P-3143]) and washed 10 times with 1 mL of cold 20 mM HEPES buffer per wash. After vacuum drying of the filter plates, 50 μL of Packard Microscint-20 was added and the bound radioactivity determined in a Packard TopCount.
# Analogous binding experiments, to those described above for the cloned human receptor expressed in L(tk−) cells, were also performed using whole brain homogenate (rat), frontal cortex homogenate (dog and rhesus monkey), and temporal cortex homogenate (human).
# [2] = Single-dose pharmacokinetics in rats (oral and IV); assay type: in vivo; settings: male, Sprague-Dawley, rat, plasma
# Procedure: Male Sprague-Dawley rats (N=8; N=4 oral and N=4 intravenous [IV]) weighing approximately 250-280 g and male rhesus monkeys (N=4, crossover) weighing 6.0-8.8 kg were used for the PK studies. In rats, the IV dose of crystalline Form II of Compound (I) at 2 mg/kg (0.4 mL/kg) was administered as a bolus and the oral dose was administered by gavage at 15 mg/kg (5 mL/kg). In monkeys, the IV dose of Form II at 2 mg/kg (0.1 mL/kg) was administered as a slow bolus and the oral dose was administered via nasogastric tube at 15 mg/kg (5 mL/kg). Blood samples were serially collected pre-dose, and at 0.083 (IV only), 0.25, 0.50, 1, 2, 4, 6, 8, 10, 24, 48, 72, and 96 h post-dose. The concentrations of Form II in rat and monkey plasma were determined by LC/MS/MS analysis in the positive ion mode using a heated nebulizer interface. The lower limit of quantitation was 2.5 ng/mL (approximately 0.00697 μM).
# [3] = tested on: Sprague-Dawley rats; assay: Locomotor assay; assay type: in vivo, rat
# Procedure: To confirm that the effect of Form II in the forced swim test was not due to a general increase in activity levels, rats were subjected to a locomotor assay following oral Form II administration. Adult male Sprague-Dawley rats (N=42) were randomly assigned across the treatment groups (vehicle or Compound (I) at 0.1, 0.3, 1, 3, 10, and 30 mg/kg; N=6/group). Locomotor activity was assessed during the light cycle in photocell-monitored cages (Hamilton Kinder, San Diego, CA). Each cage consisted of a standard plastic rat cage (24×45.5 cm) surrounded by a stainless steel frame. Infrared photocell beams were located across the long axis of the frame to measure the ambulatory distance traveled. A second set of beams was placed above the floor and was used to measure rearing activity. Photocell beam interruptions were recorded by a computer system. Filter tops were placed on top of the test enclosures during testing. Rats were administered either vehicle or test compound via oral gavage twice on Day 1 (approximately 24 h before the test and prior to dark cycle) and once on Day 2 (45 min prior to placing in the locomotor cages for a 60-min test). Locomotor activity was captured in 5-min bins.
# [4] = tested on: systemic blood pressure and heart rate; assay: Blood pressure profile in chronically instrumented (telemetered) rats; assay type: in vivo, rat; settings: for DAP change / PP change / SAP change / Activity change / HR change / MAP change: 1 hour post dose, vehicle subtracted, mean ± SEM; for Activity change / HR change / MAP change: listed as crystalline Form II of Compound (I)
# Procedure: A single oral gavage dose was administered (volume: 5 mL/kg). […] Following the completion of the Latin square, two additional dose concentrations were evaluated (0.6 and 10 mg/kg, n=3 per group).
# All IV doses were administered in manually restrained rats via tail vena-puncture. It should be noted that vehicle controls were also administered.
# A 24-hour recording was performed prior to dosing (vehicle alone) and after each oral dose.
# [5] = tested on: rats; assay: Respiratory effects in male rats, single oral doses; assay type: in vivo, rat
# Procedure: Respiratory effects were investigated in rats and dogs. […] Mean Form II plasma concentration was approximately 30 μM (10600 ng/mL) at the end of infusion and approximately 4 μM (1250 ng/mL) at 60 min post-infusion.
# [6] = 1 mg/kg PO in β1 AR blocked animals (atenolol 1 mg/kg), 1 hour post dosing
# T1 sequence (F6T8S6 29-1484): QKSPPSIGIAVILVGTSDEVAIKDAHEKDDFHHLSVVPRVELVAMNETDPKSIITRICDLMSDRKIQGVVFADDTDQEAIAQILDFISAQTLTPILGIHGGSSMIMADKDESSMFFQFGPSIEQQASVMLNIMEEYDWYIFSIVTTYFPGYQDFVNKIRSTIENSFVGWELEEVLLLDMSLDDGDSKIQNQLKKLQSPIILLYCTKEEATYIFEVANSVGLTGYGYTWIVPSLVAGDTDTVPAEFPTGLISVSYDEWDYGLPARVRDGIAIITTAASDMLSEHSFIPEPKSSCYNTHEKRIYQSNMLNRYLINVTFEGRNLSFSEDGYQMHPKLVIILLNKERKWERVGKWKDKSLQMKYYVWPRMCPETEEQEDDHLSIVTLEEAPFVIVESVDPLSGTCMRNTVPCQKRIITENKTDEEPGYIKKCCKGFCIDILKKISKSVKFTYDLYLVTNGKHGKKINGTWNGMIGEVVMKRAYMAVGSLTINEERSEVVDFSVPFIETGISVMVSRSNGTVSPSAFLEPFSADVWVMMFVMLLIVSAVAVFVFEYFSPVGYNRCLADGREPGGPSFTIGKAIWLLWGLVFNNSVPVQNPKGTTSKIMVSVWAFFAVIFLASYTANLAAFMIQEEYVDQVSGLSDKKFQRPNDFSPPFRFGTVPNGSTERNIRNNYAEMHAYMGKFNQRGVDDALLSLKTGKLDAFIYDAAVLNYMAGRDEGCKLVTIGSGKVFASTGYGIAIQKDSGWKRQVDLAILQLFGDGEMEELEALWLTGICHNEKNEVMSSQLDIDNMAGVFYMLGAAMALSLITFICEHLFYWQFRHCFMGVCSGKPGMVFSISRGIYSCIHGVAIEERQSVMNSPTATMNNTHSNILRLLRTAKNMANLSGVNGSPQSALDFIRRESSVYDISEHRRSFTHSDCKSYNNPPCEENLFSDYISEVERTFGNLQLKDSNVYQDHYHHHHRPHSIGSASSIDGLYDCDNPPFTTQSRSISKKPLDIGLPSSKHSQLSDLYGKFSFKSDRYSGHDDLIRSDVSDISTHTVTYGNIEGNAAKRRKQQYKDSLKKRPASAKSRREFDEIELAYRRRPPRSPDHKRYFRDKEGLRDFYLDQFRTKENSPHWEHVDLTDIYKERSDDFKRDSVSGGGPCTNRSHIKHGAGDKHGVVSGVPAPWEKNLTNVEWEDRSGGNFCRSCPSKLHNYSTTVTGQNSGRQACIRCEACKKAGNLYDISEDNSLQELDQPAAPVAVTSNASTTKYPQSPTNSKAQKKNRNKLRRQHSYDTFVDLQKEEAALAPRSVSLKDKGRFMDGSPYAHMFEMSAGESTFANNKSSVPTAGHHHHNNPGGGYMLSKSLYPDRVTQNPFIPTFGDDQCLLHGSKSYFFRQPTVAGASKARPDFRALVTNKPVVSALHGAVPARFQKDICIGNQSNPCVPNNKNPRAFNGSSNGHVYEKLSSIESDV
compound,measurement,setting,value
"Cc1ccc(COC(=O)N2CC[C@H](CNc3ncccn3)[C@H](F)C2)cc1 [Form II, 4-methylbenzyl (3S, 4R)-3-fluoro-4-[(pyrimidin-2-ylamino)methyl] piperidine-1-carboxylate]",Ki,[1]; 37° C.,14 nM
same,Ki,[1]; room temp.,3.1 nM
same,bioavailability,"[2]; 15 mg/kg, dose-normalized AUC0-∞ after IV and PO, non-crossover",60%
same,AUC(0-inf),"[2]; IV 2 mg/kg, mean (S.D.)",3.31 µM·h
same,half-life,"[2]; IV 2 mg/kg, mean (S.D.)",102 min
same,clearance,"[2]; IV 2 mg/kg, mean (S.D.), read-out: CLp",28.4 mL/min/kg
same,Vd,"[2]; IV 2 mg/kg, mean (S.D.), read-out: Vdss",3.1 L/kg
same,AUC(0-inf),"[2]; PO 15 mg/kg, mean (S.D.)",14.9 µM·h
same,Cmax,"[2]; PO 15 mg/kg, mean (S.D.)",5.9 µM
same,locomotor effects,[3]; 0.1 and 0.3 mg/kg dose groups,No locomotor effects
same,ED50,"[3]; Rattus norvegicus, read-out: ED50 for increase in locomotor activity",~2 mg/kg
same,distance traveled,"[3]; first 5 min of testing, 1, 3, 10, and 30 mg/kg vs vehicle",significantly increased
same,RO corresponding to locomotor ED50,"[3]; rat, in vivo",~75%
same,total distance traveled,"[3]; summed over 60-min test, 1, 3, 10, and 30 mg/kg vs vehicle",significantly increased
same,DAP change,[4]; 0.3 mg/kg PO,4.1 ± 0.9 mmHg
same,PP change,[4]; 0.3 mg/kg PO,0.1 ± 1.0 mmHg
same,SAP change,[4]; 0.3 mg/kg PO,4.3 ± 1.2 mmHg
same,Activity change,[4]; 0.3 mg/kg PO,0.012±0.025 arbitrary unit
same,HR change,[4]; 0.3 mg/kg PO,15±10 bpm
same,MAP change,[4]; 0.3 mg/kg PO,4.2±0.9 mmHg
same,DAP change,[4]; 0.6 mg/kg PO,7.8 ± 1.1 mmHg
same,PP change,[4]; 0.6 mg/kg PO,−1.5 ± 1.4 mmHg
same,SAP change,[4]; 0.6 mg/kg PO,6.3 ± 1.6 mmHg
same,Activity change,[4]; 0.6 mg/kg PO,0.003±0.033 arbitrary unit
same,HR change,[4]; 0.6 mg/kg PO,10±15 bpm
same,MAP change,[4]; 0.6 mg/kg PO,6.8±1.2 mmHg
same,MAP increase with dosing,[4]; 1 mg/kg PO in the setting of α1 AR blockade (prazosin 200 μg/kg),11.3±2.0 mmHg
same,HR change vs pre-blockade baseline,"[4]; 1 mg/kg PO in the setting of α1 AR blockade (prazosin 200 μg/kg), 1 hour post dosing",118±20 bpm
same,HR increase post-dosing,[4]; 1 mg/kg PO in β1 AR blocked animals (atenolol 1 mg/kg),53±17 bpm
same,HR change vs pre-blockade baseline,[4]; [6],−7±17 bpm
same,MAP change vs pre-blockade baseline,[4]; [6],5.8±4.8 mmHg
same,DAP change,[4]; 1.0 mg/kg PO,15.2 ± 3.0 mmHg
same,PP change,[4]; 1.0 mg/kg PO,1.4 ± 1.1 mmHg
same,SAP change,[4]; 1.0 mg/kg PO,16.8 ± 3.7 mmHg
same,Activity change,[4]; 1.0 mg/kg PO,0.049±0.037 arbitrary unit
same,HR change,[4]; 1.0 mg/kg PO,34±13 bpm
same,MAP change,[4]; 1.0 mg/kg PO,15.7±3.2 mmHg
same,DAP change,[4]; 3.0 mg/kg PO,15.0 ± 2.0 mmHg
same,PP change,[4]; 3.0 mg/kg PO,4.0 ± 0.9 mmHg
same,SAP change,[4]; 3.0 mg/kg PO,19.2 ± 2.4 mmHg
same,Activity change,[4]; 3.0 mg/kg PO,0.174±0.048 arbitrary unit
same,HR change,[4]; 3.0 mg/kg PO,66±9 bpm
same,MAP change,[4]; 3.0 mg/kg PO,17.1±2.3 mmHg
same,DAP change,[4]; 10 mg/kg PO,17.3 ± 1.9 mmHg
same,PP change,[4]; 10 mg/kg PO,3.1 ± 1.3 mmHg
same,SAP change,[4]; 10 mg/kg PO,20.7 ± 2.4 mmHg
same,Activity change,[4]; 10 mg/kg PO,0.232±0.057 arbitrary unit
same,HR change,[4]; 10 mg/kg PO,71±25 bpm
same,MAP change,[4]; 10 mg/kg PO,19.1±2.4 mmHg
same,"respiratory function (respiratory rate, tidal volume, minute ventilation, PenH)","[5]; 15, 75, and 225 mg/kg oral",respiratory stimulation
same,respiratory function at end of 6-h monitoring period,[5]; ≥75 mg/kg oral,remained altered

# From US12410153B2, “Compounds, compositions and methods” (Avalo Therapeutics, Inc., priority 2014, dated 2025)
